From patent EP0618807B1, “A STABILIZED PHARMACEUTICAL FORMULATION COMPRISING GROWTH HORMONE AND HISTIDINE” (NOVO NORDISK A/S, priority 1991, dated 1993)

What was measured:
[1] = Stability statements of the general description (deamidation, stability in solution); type: physicochemical; details: addition of the solvent to the hGH preparation
[2] = Example 2: deamidation at 25°C with histidine or histidine derivatives, desamido content by IE-HPLC; type: physicochemical; details: compared to phosphate at pH 6.5
Description: The rate of deamidation was examined at 25°C for hGH preparations comprising 6 IU hGH at pH 6.5 and at pH 7.3 in 5 mM, 10 mM and 100mM His buffer as compared to 8 mM phosphate buffer at the same pH. Furthermore, the histidine derivatives His-Gly, His-Ala, His-Leu, His-Lys, His-Phe, His-Ser, Histidine methyl ester, histidinol, imidazole, imidazole-4-acetic acid and histamine were tested.
The hGH preparations were prepared by dissolving 20 mg hGH in 10 ml of histidine buffer of the desired strength prepared by dissolving 7.8 mg, 15.5 mg and 155.2 mg, respectively, of histidine in 10 ml deionized water containing 0.9% (v/v) of benzyl alcohol and adding 0.1 N hydrochloric acid to achieve the stated pH.
The hGH formulations stated in Table 2 below were stored at 25°C and analyzed for their desamido content after 14 and 30 days by IE-HPLC.

Row | SMILES | reduction in the deamidation [1] | effect on de-amidation / stabilization (in words) [2]
1 | CO [5% methanol, methanol] | more than 20% | 
2 | CCO [10% ethanol, ethanol] | more than 20% | 
3 | OCc1ccccc1 [benzyl alcohol] |  | no influence
4 | Cc1cccc(O)c1 [m-cresol] |  | no influence
